Assay results from PMC12263422, “Cryo-EM structure of the human THIK-1 K2P K^+ channel reveals a lower Y gate regulated by lipids and anesthetics” (Nature Structural & Molecular Biology, 2025).
Several values for one entry are separate records, joined by “and”; a condition that tells them apart may be missing. Equal values may be shown once.

Tests used:
[1] = system: WT THIK-1 (coexpressed with hM1R); test: Whole-cell currents in transiently transfected HEK-293 cells, GqPCR (hM1-R) mediated activation by Oxo-M, WT THIK-1; type: cell-based, human; conditions: for activation by Oxo-M: 10 μM Oxo-M; for Maximal currents with Oxo-M: THIK-1 WT + M1R
Protocol: (§1) Two-electrode voltage–clamp (TEVC) studies were performed in Xenopus oocytes. All animal use conformed to the Guide for the Care and Use of Laboratory Animals (NIH Publication 85–23), and all experiments using Xenopus toads were approved by the local ethics panels. Oocytes were stored at 17 °C in ND96 recording solution composed of (in mM): 96 NaCl, 2 KCl, 1.8 CaCl2, 1 MgCl2, 5 HEPES (pH 7.5 adjusted with NaOH and HCl), supplemented with Na-pyruvate (275 mg L^–1), theophylline (90 mg L^–1) and gentamicin (50 mg L^–1). Oocytes were injected with 1 ng mRNA for WT or mutant channels, and were incubated for 24–48 h at 17 °C. Two-electrode voltage clamp recordings were then performed as previously described[42],[43]. For macroscopic patch–clamp measurements, oocytes were obtained as described above incubated at 17 °C in a solution containing (mM): 54 NaCl, 30 KCl, 2.4 NaHCO3, 0.82 MgSO4 ×7 H2O, 0.41 CaCl2, 0.33 Ca(NO3)2 ×4 H2O and 7.5 TRIS (pH 7.4 adjusted with NaOH and HCl) for 1–4 days before use. Excised patch recordings in inside-out configuration conditions were performed at room temperature. Patch pipettes were made from thick-walled borosilicate glass GB 200TF-8P (Science Products), had resistances of 0.2–0.5 MΩ (tip diameter, 10–25 µm) and filled with a pipette solution (in mM): 120 KCl, 10 HEPES and 3.6 CaCl2 (pH 7.4 adjusted with KOH and HCl). Intracellular bath solutions and compounds were applied to the cytoplasmic side of excised patches for the various K^+ channels through a gravity flow multi-barrel pipette system. The intracellular solution had the following composition (in mM): 120 KCl, 10 HEPES, 2 EGTA and 1 pyrophosphate (pH adjusted with KOH and HCl). Currents were recorded with an EPC10 amplifier (HEKA Electronics) and sampled at 10 kHz or higher, with filtering set to 3 kHz (–3 dB) or higher, as appropriate for sampling rate. For measurements of GPCR activation, whole-cell currents were recorded for THIK-1 in transiently transfected HEK-293 cells. Cells were stimulated by a ramp protocol between −100 and +60 mV (holding potential, −80 mV). The pipette solution was composed of (in mM): 140 KCl, 2 MgCl2, 1 CaCl2, 2.5 EGTA and 10 HEPES (pH 7.3 adjusted with KOH and HCl). The extracellular bath solution had the following composition (in mM): 135 NaCl, 5 KCl, 2 MgCl2, 2 CaCl2, 10 glucose and 10 HEPES pH (pH 7.3 adjusted with NaOH and HCl). Oxotremorine M (Oxo-M) was added to extracellular bath solution to obtain the final concentration. Single-channel currents were recorded with an Axopatch 200B amplifier through a Digidata 1440A digitizer (Molecular Devices). Data were filtered at 2 kHz and recorded at a 200-kHz sampling rate with the program Clampex (Molecular Devices). […]

[2] = system: THIK-1-Y273A (coexpressed with hM1R); test: Whole-cell currents in transiently transfected HEK-293 cells, GqPCR (hM1-R) mediated activation by Oxo-M, THIK-1-Y273A; type: cell-based, human; conditions: for Maximal currents with Oxo-M: THIK-1 Y273A + M1R
Protocol: as §1, with “The intracellular solution had the following composition (in mM): 120 KCl, 10 HEPES, 2 EGTA and 1 pyrophosphate (pH adjusted with KOH and HCl).” left out, “Cells were stimulated by a ramp protocol between −100 and +60 mV (holding potential, −80 mV). The pipette solution was composed of (in mM): 140 KCl, 2 MgCl2, 1 CaCl2, 2.5 EGTA and 10 HEPES (pH 7.3 adjusted with KOH and HCl). The extracellular bath solution had the following composition (in mM): 135 NaCl, 5 KCl, 2 MgCl2, 2 CaCl2, 10 glucose and 10 HEPES pH (pH 7.3 adjusted with NaOH and HCl). Oxotremorine M (Oxo-M) was added to extracellular bath solution to obtain the final concentration.” left out

WT THIK-1 (without M1R) = molecular target: T1, WT THIK-1 (without M1R) (Homo sapiens, UniProt Q9HB14); test: Whole-cell currents in HEK-293 cells with Oxo-M, WT THIK-1 without M1R; type: cell-based; conditions: THIK-1 WT (no M1R)
T1 construct: expressed in transfected cells; host or cells: HEK-293
From the text: Supplement 41594_2025_1497_MOESM2_ESM.xlsx, sheet "ExtData_Fig_S2e" | column: Maximal currents with Oxo-M (%); WT

T1 sequence (Q9HB14 whole entry): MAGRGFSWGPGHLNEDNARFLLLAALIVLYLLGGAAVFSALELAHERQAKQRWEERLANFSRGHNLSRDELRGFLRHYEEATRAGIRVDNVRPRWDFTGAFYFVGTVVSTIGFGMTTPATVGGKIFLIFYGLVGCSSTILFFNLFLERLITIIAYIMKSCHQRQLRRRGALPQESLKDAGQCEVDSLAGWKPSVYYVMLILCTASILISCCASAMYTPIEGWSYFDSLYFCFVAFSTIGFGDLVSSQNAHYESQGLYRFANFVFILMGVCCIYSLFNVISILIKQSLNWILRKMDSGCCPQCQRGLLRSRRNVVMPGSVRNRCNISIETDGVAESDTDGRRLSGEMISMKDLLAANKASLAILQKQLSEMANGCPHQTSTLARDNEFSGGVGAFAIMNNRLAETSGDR

C[N+](C)(C)CC#CCN1CCCC1=O [Oxo-M, Oxotremorine M]
activation by Oxo-M ([1]; WT THIK-1 with hM1-R): ~ 50% | activation by Oxo-M ([1]; in the absence of hM1-R): no activation | Maximal currents with Oxo-M ([1]; individual recordings): 172.080% and 208.230% and 131.370% and 127.470% and 125.270% and 149.760% and 113.980% and 121.900% and 146.330% and 151.430% and 123.170% and 131.250% and 181.580% and 173.780% and 155.620% and 228.290% and 290.820% and 139.180% and 66.330% and 107.180% and 88.700% | Maximal currents with Oxo-M ([1]; mean): 149.22% | activation by Oxo-M ([2]; 10 μM Oxo-M, THIK-1-Y273A): no activation | Maximal currents with Oxo-M ([2]; individual recordings): 93.100% and 97.920% and 94.800% and 93.870% and 99.320% and 100.290% | Maximal currents with Oxo-M ([2]; mean): 96.55% | Maximal currents with Oxo-M (WT THIK-1 (without M1R); individual recordings): 87.670% and 72.140% and 84.570% and 69.740% and 73.820% and 88.800% and 69.120% and 93.710% and 101.590% and 90.590% and 96.720% and 154.730% and 88.450% | Maximal currents with Oxo-M (WT THIK-1 (without M1R); mean): 90.13%
